Experimental data taken from patent US20100240709A1, “Sulfoximine Derivatives as p38 MAP Kinase Inhibitors” (priority 2005, published 2010).

What was measured:
TNF α [1] = assay: Ex-vivo human whole blood, LPS-induced TNF-α by ELISA; type: cell-based; details: LPS 1 ng/ml; for inhibition at 10 µM / inhibition at 100 µM: Homo sapiens
Procedure: (§1) Blood was collected by venous puncture from 3 different volunteers in separate heparinized (100 IU/ml) tubes and incubated in the presence of 10 μM and 100 μM of test compounds for 1 hr at 37° C. Following this LPS (1 ng/ml final concentration) was added and incubation continued for 5 hr. The reaction was terminated by placing the samples on ice for 10 min. The samples were then centrifuged, plasma separated and stored at −70° C. until the analysis of TNF-α and IL-1β by ELISA: […]

IL-1 β = assay: Ex-vivo human whole blood, LPS-induced IL-1β by ELISA; type: cell-based; details: LPS 1 ng/ml; for inhibition at 10 µM / inhibition at 100 µM: Homo sapiens
Procedure: as §1

TNF α [2] = assay: In vivo LPS induced TNF α inhibition in Balb/c mice; details: 10 mg/kg orally, 30 minutes prior to i.v. LPS (50 μg/kg); blood 60 minutes after LPS
Procedure: Balb/c mice were kept for acclimatization in the observation room for two days before the experiment. On the day of the experiment, animals were weighed and the test compounds to be administered calculated at a 10 mg/kg body weight basis in a total volume of 2 ml. Control groups received vehicle alone while the treatment groups received the test compound, both given orally, 30 minutes prior to intravenous injection of LPS (50 μg/kg). Blood was collected 60 minutes after the LPS injection from retro orbital plexus, the serum separated & stored in deep freeze till the estimation of TNF by ELISA method.

p38 MAP kinase = p38 MAP kinase (Homo sapiens, UniProt Q16539); assay: p-38 MAPK Enzyme assay (in vitro ELISA, ATF-2 substrate); type: biochemical; details: ELISA detection of phosphorylated ATF-2
Source text: The compounds were screened using an in vitro ELISA assay for p38 MAP kinase activity. Activated p38 MAP kinase during the course of its biological function phosphorylates its substrates. The assay was based on the detection of a phosphorylated p38 MAP kinase substrate using ATF-2 as the biological substrate. More the activity of the p38 MAP kinase inhibitor in the reaction mixture less will be the amount of active p38 MAP kinase available to phosphorylate ATF-2. So, lower OD value will indicate the higher inhibition of p38 MAP kinase by the specific p38 MAP kinase inhibitor. The quantitation of phosphorylated ATF-2 at varying concentrations of p38 MAP kinase inhibitor was used to determine the IC50 by fitting the results to a logistic dose-response program (Graphpad Prism, CA). IC50 was defined as the concentration of compound required to achieve 50% inhibition of p38 MAP kinase activity.

p38 MAP kinase, sequence (Q16539 whole entry): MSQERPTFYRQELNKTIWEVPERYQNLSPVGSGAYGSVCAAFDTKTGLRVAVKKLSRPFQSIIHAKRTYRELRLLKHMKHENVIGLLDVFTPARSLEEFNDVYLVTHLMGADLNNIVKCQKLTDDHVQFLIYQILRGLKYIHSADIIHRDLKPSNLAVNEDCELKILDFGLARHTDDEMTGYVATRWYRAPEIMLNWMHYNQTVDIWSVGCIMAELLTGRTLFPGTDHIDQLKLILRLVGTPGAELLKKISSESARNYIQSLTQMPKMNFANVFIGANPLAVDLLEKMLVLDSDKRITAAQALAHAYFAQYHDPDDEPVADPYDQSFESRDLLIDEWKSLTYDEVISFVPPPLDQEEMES

CCc1nc(-c2ccc(F)cc2)c(-c2ccnc(N=S(C)(=O)c3cccc(C)c3)c2)s1 (centres unmarked) [Example 46, S-Methyl-S-3-methylphenyl-N-[4-(2-ethyl-4-fluorophenyl-thiazol-5-yl)-pyridine]-sulfoximine]
TNF α % inhibition (TNF α [1]; Conc 10 μM): 40.9% | TNF α % inhibition (TNF α [1]; Conc 100 μM): 90.1% | IL-1 β % inhibition (IL-1 β; Conc 10 μM): 73.3% | IL-1 β % inhibition (IL-1 β; Conc 100 μM): 95.8% | In vivo LPS induced TNF α inhibition in Balb/c mice TNF α % inhibition (10 mg/kg) (TNF α [2]): 56.80%

CCc1nc(-c2ccc(F)cc2)c(-c2ccnc(N=S(C)(=O)c3ccc(F)cc3)c2)s1 (single isomer, unassigned; (+)) [Example 44, (+)-S-Methyl-S-4-fluoro-phenyl-N-[4-(2-ethyl-4-(4-fluoro-phenyl)-1,3-thiazol-5-yl)-pyridine-2-yl]-sulfoximine]
TNF α % inhibition (TNF α [1]; Conc 10 μM): 32.74% | TNF α % inhibition (TNF α [1]; Conc 100 μM): 95.59% | IL-1 β % inhibition (IL-1 β; Conc 10 μM): 64.82% | IL-1 β % inhibition (IL-1 β; Conc 100 μM): 92.36% | In vivo LPS induced TNF α inhibition in Balb/c mice TNF α % inhibition (10 mg/kg) (TNF α [2]): 50.4% | IC50 (p38 MAP kinase): 6.6 µM

CCc1nc(-c2ccccc2)c(-c2ccnc(N=S(C)(=O)c3cccc(C)c3)c2)s1 (stereo not drawn) [Example 24, S-Methyl-S-(3-Methylphenyl)-N-[4-{2-ethyl-4-phenyl-thiazol-5-yl}-pyridine]-sulfoximine]
inhibition at 10 µM (TNF α [1]; Conc 10 μM): 7.43% | inhibition at 100 µM (TNF α [1]; Conc 100 μM): 69.7% | inhibition at 10 µM (IL-1 β; Conc 10 μM): 22.7% | inhibition at 100 µM (IL-1 β; Conc 100 μM): 81.2% | In vivo LPS induced TNF α inhibition in Balb/c mice TNF α % inhibition (10 mg/kg) (TNF α [2]): 39.3% | IC50 (p38 MAP kinase): 9.8 µM

CCc1nc(-c2ccc(F)cc2)c(-c2ccnc(N=S(C)(=O)c3ccc(F)cc3)c2)s1 (single isomer, unassigned; (-)) [Example 43, (−)-S-Methyl-S-4-fluoro-phenyl-N-[4-(2-ethyl-4-(4-fluoro-phenyl)-1,3-thiazol-5-yl)-pyridine-2-yl]-sulfoximine]
TNF α % inhibition (TNF α [1]; Conc 100 μM): 55.14% | inhibition at 10 µM (TNF α [1]; Conc 10 μM): 17.8% | IL-1 β % inhibition (IL-1 β; Conc 10 μM): 24.62% | inhibition at 100 µM (IL-1 β; Conc 100 μM): 79.3% | In vivo LPS induced TNF α inhibition in Balb/c mice TNF α % inhibition (10 mg/kg) (TNF α [2]): 49.4% | IC50 (p38 MAP kinase): 71 µM

CCc1nc(-c2ccc(F)cc2)c(-c2ccnc(N=S(=O)(c3ccccc3)C(C)C)c2)s1 (single isomer, unassigned; (-)) [Example 36, (−)-Isopropyl-S-phenyl-N-{4-[2-ethyl-4-(4-fluoro-phenyl)-thiazol-5-yl]-pyridin-2-yl}-sulfoximine]
inhibition at 10 µM (TNF α [1]; Conc 10 μM): 34.3% | inhibition at 100 µM (TNF α [1]; Conc 100 μM): 97.7% | inhibition at 10 µM (IL-1 β; Conc 10 μM): 38.9% | inhibition at 100 µM (IL-1 β; Conc 100 μM): 96.3% | In vivo LPS induced TNF α inhibition in Balb/c mice TNF α % inhibition (10 mg/kg) (TNF α [2]): 43.3% | IC50 (p38 MAP kinase): 13.4 µM

CCc1nc(-c2ccc(F)cc2)c(-c2ccnc(N=S(C)(=O)c3cccc(F)c3)c2)s1 (centres unmarked) [Example 47, S-Methyl-S-3-fluorophenyl-N-[4-{2-ethyl-4-(4-fluorophenyl)-thiazol-5-yl}-pyridine-2-yl]-sulfoximine]
inhibition at 10 µM (TNF α [1]; Conc 10 μM): 24.4% | inhibition at 100 µM (TNF α [1]; Conc 100 μM): 89.6% | inhibition at 10 µM (IL-1 β; Conc 10 μM): 78.1% | inhibition at 100 µM (IL-1 β; Conc 100 μM): 98.5% | In vivo LPS induced TNF α inhibition in Balb/c mice TNF α % inhibition (10 mg/kg) (TNF α [2]): 48.60%

CCc1nc(-c2ccc(F)c(F)c2)c(-c2ccnc(N=S(=O)(c3ccccc3)C(C)C)c2)s1 (centres unmarked) [Example 60, S-Isopropyl-S-phenyl-N-{4-[2-ethyl-4-(3,4-difluorophenyl)-thiazol-5-yl]-pyridin-2-yl}-sulfoximine]
inhibition at 10 µM (TNF α [1]; Conc 10 μM): 36.7% | inhibition at 100 µM (TNF α [1]; Conc 100 μM): 81.7% | inhibition at 10 µM (IL-1 β; Conc 10 μM): 35.2% | inhibition at 100 µM (IL-1 β; Conc 100 μM): 84.5% | In vivo LPS induced TNF α inhibition in Balb/c mice TNF α % inhibition (10 mg/kg) (TNF α [2]): 53.65% | IC50 (p38 MAP kinase): 11.8 µM

CCc1nc(-c2ccccc2)c(-c2ccnc(N=S(=O)(c3ccccc3)c3ccccc3)c2)s1 [Example 32, S,S-diphenyl-N-[4-(2-ethyl-4-phenyl-thiazol-5-yl)-pyridin-2-yl]-sulfoximine]
IC50 (p38 MAP kinase): 10 µM

O=S(=Nc1cc(-c2scnc2-c2cccc(F)c2)ccn1)(c1ccccc1)C1CCCC1 (centres unmarked) [Example 70]
IC50 (p38 MAP kinase): 8.2 µM

CCc1nc(-c2cccc(C)c2)c(-c2ccnc(N=S(C)(=O)c3ccccc3C)c2)s1 (stereo not drawn) [Example 12, S-(2-Methylphenyl)-S-methyl-N-[4-(2-ethyl-4-m-tolyl-thiazol-5-yl)-pyridin-2-yl]-sulfoximine]
IC50 (p38 MAP kinase): 6.95 µM

CCc1nc(-c2ccc(F)cc2)c(-c2ccnc(N=S(C)(=O)c3ccccc3)c2)s1 (centres unmarked) [Example 39, S-Methyl-S-phenyl-N-[4-(2-ethyl-4-(4-fluoro-phenyl)-1,3-thiazol-5-yl)-pyridine-2-yl]-sulfoximine]
IC50 (p38 MAP kinase): 4.6 µM

CCc1nc(-c2ccccc2)c(-c2ccnc(N=S(C)(=O)c3cccc(F)c3)c2)s1 (stereo not drawn) [Example 25, S-Methyl-S-(3-fluorophenyl)-N-[4-{2-ethyl-4-phenyl-thiazol-5-yl}-pyridine]-sulfoximine]
TNF α % inhibition (TNF α [1]; Conc 10 μM): 15.39% | TNF α % inhibition (TNF α [1]; Conc 100 μM): 64.06% | IL-1 β % inhibition (IL-1 β; Conc 10 μM): 38.5% | IL-1 β % inhibition (IL-1 β; Conc 100 μM): 79.4% | In vivo LPS induced TNF α inhibition in Balb/c mice TNF α % inhibition (10 mg/kg) (TNF α [2]): 59.6%

CCc1nc(-c2ccc(F)cc2)c(-c2ccnc(N=S(=O)(c3ccccc3)C(C)C)c2)s1 (single isomer, unassigned; (+)) [Example 37, (+)-S-Isopropyl-S-phenyl-N-{4-[2-ethyl-4-(4-fluoro-phenyl)-thiazol-5-yl]-pyridin-2-yl}-sulfoximine]
IC50 (p38 MAP kinase): 5.93 µM

CCCCS(=O)(CCCC)=Nc1cc(-c2sc(CC)nc2-c2cccc(C)c2)ccn1 [Example 16, Di-n-butyl-N-[4-(2-ethyl-4-(3-methylphenyl)-1,3-thiazol-5-yl)-pyridine-2-yl]-sulfoximine]
IC50 (p38 MAP kinase): 1.9 µM

CCc1nc(-c2cccc(C)c2)c(-c2ccnc(N=[S@@](C)(=O)c3ccccc3)c2)s1 [Example 5, (+)-(S)-methyl-S-phenyl-N-[4-(2-ethyl-4-(3-methylphenyl)-1,3-thiazol-5-yl)-pyridine-2-yl]-sulfoximine]
IC50 (p38 MAP kinase): 1.4 µM

CCc1nc(-c2cccc(C)c2)c(-c2ccnc(N=S(C)(=O)c3ccc(F)cc3)c2)s1 (stereo not drawn) [Example 7, S-Methyl-S-(4-fluorophenyl)-N-[4-(2-ethyl-4-(3-methylphenyl)-1,3-thiazol-5-yl)-pyridine-2-yl]-sulfoximine]
IC50 (p38 MAP kinase): 3.8 µM

CCc1nc(-c2cccc(C)c2)c(-c2ccnc(N=S(C)(=O)c3ccc(C)cc3)c2)s1 (centres unmarked) [Example 15, S-Methyl-S-4-methylphenyl-N-[4-(2-ethyl-4-(3-methylphenyl)-1,3-thiazol-5-yl)-pyridine-2-yl]-sulfoximine]
IC50 (p38 MAP kinase): 4.9 µM

CCc1nc(-c2ccccc2)c(-c2ccnc(N=S(=O)(c3ccccc3)C(C)C)c2)s1 (centres unmarked) [Example 22]
IC50 (p38 MAP kinase): 5.01 µM

CCc1nc(-c2ccc(F)cc2)c(-c2ccnc(N=S(C)(=O)c3ccccc3)c2)s1 (single isomer, unassigned; (+)) [Example 40, (+)-S-Methyl-S-phenyl-N-[4-(2-ethyl-4-(4-fluoro-phenyl)-1,3-thiazol-5-yl)-pyridine-2-yl]-sulfoximine]
IC50 (p38 MAP kinase): 2.7 µM
